Test results as given in patent US20030162694A1, “Novel treatment for pathological aggression” (priority 2002, published 2003).

How the values were obtained:
C57BL/6 mice = conditions: chronic exposure (i.c.v.), low baseline aggressiveness (Lumley, Soc. Neurosci); cited from earlier work
individually housed mice = conditions: cited from earlier work
SJL mice = test: social interaction test with a non-aggressive conspecific in long-term individually housed hyperaggressive mice (isolation-induced aggression); type: in vivo; conditions: for mice that attacked: vehicle 8 of 8
From the text: It is well-established that housing in isolation for significant periods of time will enhance the natural tendency of cage resident mice to attack an “intruder” mouse placed in their home cage. The isolation model in mice is the most appropriate model for screening drugs for anti-aggression potential. We tested whether acute exposure to the NAALADase inhibitor [2-[(pentafluorophenylmethyl) hydroxyphosphinyl]methyl-pentanedioic acid, administered prior to a social interaction test, would inhibit aggressive behavior in SJL mice that had been individually housed for eight months. [2-[(pentafluorophenylmethyl) hydroxyphosphinyl]methyl-pentanedioic acid (30 mg/kg, i.p.) was administered 30 minutes prior to a social interaction test to pharmacologically naive male mice which had been selected and behaviorally shaped to be hyperaggressive, and had consistently shown markedly aggressive behaviors in prior interactions with intruder mice. Administration of [2-[(pentafluorophenylmethyl) hydroxyphosphinyl]methyl-pentanedioic acid (30 mg/kg, i.p.) inhibited aggression, indicated by greater latencies to display tail-rattling, attack and bite, and fewer tail-rattling responses to a non-aggressive conspecific, relative to vehicle. In addition, fewer mice that received [2-[(pentafluorophenylmethyl) hydroxyphosphinyl]methyl-pentanedioic acid (30 mg/kg) initiated attack, relative to those that received vehicle.
We hypothesized that similar to the effects of NMDA antagonists, NAALADase inhibition and therefore increased NAAG, would inhibit aggressiveness under conditions of high basal levels of aggressiveness. We administered the NAALADase inhibitor [2-[(pentafluorophenylmethyl) hydroxyphosphinyl]methyl-pentanedioic acid prior to a social interaction test in a novel cage and measured behavioral responses to a non-aggressive conspecific; a novel cage was used to lower the levels of aggressiveness. The paradigm used was adapted from File (reviewed in Crawley, 2000).
Principles of laboratory animal care (NIH publication No. 85-23, revised 1985) were followed. […] In addition, these mice had been used to socially defeat mice that were used as subjects in numerous other studies. These highly aggressive SJL had no previous drug exposure. At the end of 8 months of training, subjects weighed 30-37 grams and had attack latencies of less than 30 sec when exposed to an obx. During the social interaction test, two C57BL/6 male mice (30-33 g; Jackson Laboratories), which were screened for non-aggressiveness and unfamiliar to the subjects, were used as stimulus mice.
[2-[(pentafluorophenylmethyl) hydroxyphosphinyl]methyl-pentanedioic acid, MW 390.2 (3 mg/kg or 30 mg/kg in 50 mM Hepes in 0.9% saline; pH 7.2; Guilford Pharmaceuticals) or vehicle (50 mM Hepes in 0.9% saline; pH 7.2) was administered intraperitoneally (i.p.; 10 ml/kg) 30 min. prior to a 4 min. social interaction test. Subject mice were placed in a novel cage (48×27×20 cm) along with a non-aggressive male conspecific and tested under low illumination (red lights) during the dark phase of their cycle. Methods for various social interaction tests reviewed in Crawley et al. (2000). Tests were videotaped and behaviors were scored using a computer program (Hindsight, Scott Weiss, UK), by two observers blind to the treatment. Behavioral measures included 1) measures of aggressiveness or threat: attack, bite, chase or follow, grooming conspecific, tail rattling 2) measures of exploratory and locomotor activity: walking, rearing, digging, 3) measures of defensiveness: defensive posture (crouch, upright) and flight. Details on behavioral measurements may be found in Grant and McIntosh, 1963; Lumley et al., 2000; Crawley, 2000.
One-way analysis of variance was performed for each behavioral measure with drug dose as the independent factor. Data were further probed using Dunnet=s test.

mice = mice (McAllister, 1990); cited from earlier work

**Q.** Which aggressiveness (C57BL/6 mice) does the source give for O=C(O)CCC(CP(=O)(O)O)C(=O)O (stereo not shown) [2-PMPA, 2-(phosphonomethyl)-pentanedioic acid] here?
**A.** increase aggressiveness

**Q.** With c1ccc(C2(N3CCCCC3)CCCCC2)cc1 [PCP, phencyclidine] as the compound, how does the aggressiveness (individually housed mice; individually housed mice (Wilmot et al., 1987)) read?
**A.** increased aggressiveness

**Q.** And the “number of mice that displayed attack” value (individually housed mice; individually housed mice)?
**A.** reduced the number of mice that displayed attack

**Q.** Which results are given for O=C(O)CCC(CP(=O)(O)Cc1c(F)c(F)c(F)c(F)c1F)C(=O)O (stereo not shown) [[2-[(pentafluorophenylmethyl) hydroxyphosphinyl]methyl-pentanedioic acid]?
**A.** mice that attacked (SJL mice; 3 mg/kg): 7 of 10; latency to attack (SJL mice; 30 mg/kg i.p., 30 min before 4 min test, relative to vehicle, F (2, 26)=2.36): increased latencies; latency to bite (SJL mice; 30 mg/kg i.p., 30 min before 4 min test, relative to vehicle, F (2, 26)=2.82): increased latencies; latency to display tail-rattling (SJL mice; 30 mg/kg i.p., 30 min before 4 min test, relative to vehicle, F (2, 26)=7.41): increased latencies; number of tail-rattling responses (SJL mice; 30 mg/kg, relative to vehicle, F (2, 26)=3.66): tended to display fewer tail-rattling responses; mice that attacked (SJL mice; 30 mg/kg): 4 of 9; percent of mice that attacked the conspecific (SJL mice; 30 mg/kg, vehicle 100%): 44%; defensive responses (SJL mice; 3 or 30 mg/kg i.p., few mice displayed any): no effect; number of attacks (SJL mice; in mice displaying the behavior, 3 or 30 mg/kg i.p., F (2,18)=0.11): no effect; number of bites (SJL mice; in mice displaying the behavior, 3 or 30 mg/kg i.p., F (2, 26)=0.31): no effect; number of attacks in the 4 of 9 treated mice that attacked (SJL mice; relative to vehicle-treated mice, not significant): tended to have more attacks; tail rattling responses as stated in the discussion (SJL mice; relative to vehicle, dose not stated): more tail rattling responses than vehicle

**Q.** Which aggression (mice) does the source give for C[C@]12N[C@H](Cc3ccccc31)c1ccccc12 [dizocilpine] here?
**A.** increased aggression
